Reference: patent US9469650B2, “Melampomagnolide B derivatives” (BOARD OF TRUSTEES OF THE UNIVERSITY OF ARKANSAS, priority 2013, dated 2016)

Legend:
[1] = tested on: K-562; test: panel of 60 human tumor cell lines, growth inhibition (Leukemia); details: for GI50 / CC50: Homo sapiens; for GI50: K562; for CC50: K562, read-out: LC50; for Percent Growth / TGI: K-562; for TGI: NCI five dose
[2] = tested on: LOX IMVI; test: panel of 60 human tumor cell lines, growth inhibition (Melanoma); details: Homo sapiens; for GI50: NCI five dose; for CC50: read-out: LC50; for IC (TGI): read-out: TGI
[3] = tested on: SK-MEL-2; test: as above; details: Homo sapiens; for GI50: SK-MEL-2; for CC50: SK-MEL-2, read-out: LC50; for IC (TGI): SK-MEL-2, read-out: TGI
[4] = tested on: SK-MEL-28; test: as above; details: Homo sapiens; for GI50: SK-MEL-28; for CC50: SK-MEL-28, read-out: LC50; for IC (TGI): SK-MEL-28, read-out: TGI
[5] = tested on: SK-MEL-5; test: as above; details: Homo sapiens; for GI50: SK-MEL-5; for CC50: SK-MEL-5, read-out: LC50; for IC (TGI): SK-MEL-5, read-out: TGI
[6] = tested on: UACC-257; test: as above; details: for GI50 / CC50: Homo sapiens; for GI50 / Percent Growth / TGI: UACC-257; for CC50: UACC-257, read-out: LC50; for TGI: NCI five dose
[7] = tested on: SF-295; test: panel of 60 human tumor cell lines, growth inhibition (CNS Cancer); details: Homo sapiens; for GI50: SF-295; for CC50: SF-295, read-out: LC50; for IC (TGI): SF-295, read-out: TGI
[8] = tested on: U251; test: as above; details: Homo sapiens; for GI50: U-251; for CC50: U-251, read-out: LC50; for IC (TGI): U-251, read-out: TGI
[9] = tested on: RXF 393; test: panel of 60 human tumor cell lines, growth inhibition (Renal Cancer); details: Homo sapiens; for GI50: RXF 393, RXF 393, NCI five dose; for CC50: RXF 393, read-out: LC50; for IC (TGI): RXF 393, read-out: TGI
[10] = tested on: BT-549; test: panel of 60 human tumor cell lines, growth inhibition (Breast Cancer); details: Homo sapiens; for GI50: BT-549; for CC50: BT-549, read-out: LC50; for IC (TGI): BT-549, read-out: TGI
[11] = tested on: OVCAR-3; test: panel of 60 human tumor cell lines, growth inhibition (Ovarian Cancer); details: for GI50 / CC50 / IC (TGI): Homo sapiens; for GI50 / Percent Growth: OVCAR-3; for CC50: OVCAR-3, read-out: LC50; for IC (TGI): OVCAR-3, read-out: TGI
[12] = tested on: OVCAR-5; test: as above; details: Homo sapiens; for GI50: OVCAR-5; for CC50: OVCAR-5, read-out: LC50; for IC (TGI): OVCAR-5, read-out: TGI
[13] = tested on: OVCAR-8; test: as above; details: Homo sapiens; for GI50: OVCAR-8; for CC50: OVCAR-8, read-out: LC50; for IC (TGI): OVCAR-8, read-out: TGI
[14] = tested on: SK-OV-3; test: as above; details: Homo sapiens; for GI50: SK-OV-3; for CC50: SK-OV-3, read-out: LC50; for IC (TGI): SK-OV-3, read-out: TGI
[15] = tested on: DU-145; test: panel of 60 human tumor cell lines, growth inhibition (Prostate Cancer); details: Homo sapiens; for GI50: DU-145; for CC50: DU-145, read-out: LC50; for IC (TGI): DU-145, read-out: TGI
[16] = tested on: A549/ATCC; test: panel of 60 human tumor cell lines, growth inhibition (Non-Small Cell Lung Cancer); details: Homo sapiens; for GI50: A549; for CC50: A549, read-out: LC50; for IC (TGI): A549, read-out: TGI
[17] = tested on: HOP-62; test: as above; details: Homo sapiens; for GI50: HOP-62; for CC50: HOP-62, read-out: LC50; for IC (TGI): HOP-62, read-out: TGI
[18] = tested on: NCI-H322M; test: as above; details: Homo sapiens; for CC50: read-out: LC50; for IC (TGI): read-out: TGI

SMILES: C=C1C(=O)O[C@H]2[C@H]1CC/C(COC(=O)NCCCCCCO)=C\CC[C@@]1(C)O[C@@H]21 [JVM 2-31]
- GI50 [1]: 4.96 µM
- CC50 [1]: > 100 µM
- Percent Growth ([1]; Log10 Concentration −4.0): −33%
- Percent Growth ([1]; Log10 Concentration −5.0): 28%
- Percent Growth ([1]; Log10 Concentration −6.0): 101%
- Percent Growth ([1]; Log10 Concentration −7.0): 113%
- Percent Growth ([1]; Log10 Concentration −8.0): 102%
- TGI [1]: 2.88E−5
- GI50 [2]: 3.45 µM
- CC50 [2]: 42.1 µM
- IC (TGI) [2]: 13.1 µM
- GI50 [3]: 14.4 µM
- CC50 [3]: 70.4 µM
- IC (TGI) [3]: 31.9 µM
- GI50 [4]: 5.21 µM
- CC50 [4]: 43.7 µM
- IC (TGI) [4]: 18.1 µM
- GI50 [5]: 6.8 µM
- CC50 [5]: 54.5 µM
- IC (TGI) [5]: 21.7 µM
- GI50 [6]: 8.79 µM
- CC50 [6]: 64.3 µM
- Percent Growth ([6]; Log10 Concentration −4.0): −73%
- Percent Growth ([6]; Log10 Concentration −5.0): 47%
- Percent Growth ([6]; Log10 Concentration −6.0): 95%
- Percent Growth ([6]; Log10 Concentration −7.0): 104%
- Percent Growth ([6]; Log10 Concentration −8.0): 102%
- TGI [6]: 2.47E−5
- GI50 [7]: 14.8 µM
- CC50 [7]: 85.8 µM
- IC (TGI) [7]: 35.7 µM
- GI50 [8]: 17.4 µM
- CC50 [8]: 63.7 µM
- IC (TGI) [8]: 33.3 µM
- GI50 [9]: 1.24 µM
- CC50 [9]: 40.2 µM
- IC (TGI) [9]: 9.75 µM
- GI50 [10]: 2.86 µM
- CC50 [10]: 43.4 µM
- IC (TGI) [10]: 17.4 µM
- GI50 [11]: 3.4 µM
- CC50 [11]: 36 µM
- IC (TGI) [11]: 12.1 µM
- Percent Growth ([11]; Log10 Concentration −4.0): −97%
- Percent Growth ([11]; Log10 Concentration −5.0): 9%
- Percent Growth ([11]; Log10 Concentration −6.0): 97%
- Percent Growth ([11]; Log10 Concentration −7.0): 111%
- Percent Growth ([11]; Log10 Concentration −8.0): 105%
- GI50 [12]: 13.4 µM
- CC50 [12]: 64.1 µM
- IC (TGI) [12]: 29.3 µM
- GI50 [13]: 10.2 µM
- CC50 [13]: 76 µM
- IC (TGI) [13]: 27.9 µM
- GI50 [14]: 28.6 µM
- CC50 [14]: > 100 µM
- IC (TGI) [14]: 69.9 µM
- GI50 [15]: 3.68 µM
- CC50 [15]: 39.4 µM
- IC (TGI) [15]: 14.3 µM
- GI50 [16]: 17 µM
- CC50 [16]: 85.2 µM
- IC (TGI) [16]: 38 µM
- GI50 [17]: 19.6 µM
- CC50 [17]: 86.7 µM
- IC (TGI) [17]: 41.2 µM
- GI50 [18]: 32.2 µM
- CC50 [18]: > 100 µM
- IC (TGI) [18]: 89 µM

SMILES: C=C1C(=O)O[C@H]2[C@H]1CC/C(COC(=O)OC)=C\CC[C@@]1(C)O[C@@H]21 [JVM 2-40]
- GI50 [1]: 4.12 µM
- CC50 [1]: > 100 µM
- Percent Growth ([1]; Log10 Concentration −4.0): −31%
- Percent Growth ([1]; Log10 Concentration −5.0): 21%
- Percent Growth ([1]; Log10 Concentration −6.0): 97%
- Percent Growth ([1]; Log10 Concentration −7.0): 99%
- Percent Growth ([1]; Log10 Concentration −8.0): 101%
- TGI [1]: 2.53E−5
- GI50 [2]: 3.4 µM
- CC50 [2]: 43.3 µM
- IC (TGI) [2]: 13.1 µM
- GI50 [3]: 10.6 µM
- CC50 [3]: 59.5 µM
- IC (TGI) [3]: 25.1 µM
- GI50 [4]: 3.59 µM
- CC50 [4]: 44.8 µM
- IC (TGI) [4]: 16 µM
- GI50 [5]: 7.58 µM
- CC50 [5]: 50.6 µM
- IC (TGI) [5]: 21.5 µM
- GI50 [6]: 4.98 µM
- CC50 [6]: 46.7 µM
- Percent Growth ([6]; Log10 Concentration −4.0): −92%
- Percent Growth ([6]; Log10 Concentration −5.0): 36%
- Percent Growth ([6]; Log10 Concentration −6.0): 82%
- Percent Growth ([6]; Log10 Concentration −7.0): 84%
- Percent Growth ([6]; Log10 Concentration −8.0): 90%
- TGI [6]: 1.90E−5
- GI50 [7]: 13.2 µM
- CC50 [7]: 59.3 µM
- IC (TGI) [7]: 28 µM
- GI50 [8]: 16.4 µM
- CC50 [8]: 55.5 µM
- IC (TGI) [8]: 30.2 µM
- GI50 [9]: 1.68 µM
- CC50 [9]: 31.7 µM
- IC (TGI) [9]: 6.85 µM
- GI50 [10]: 5.74 µM
- CC50 [10]: 43.5 µM
- IC (TGI) [10]: 18.7 µM
- GI50 [11]: 2.63 µM
- CC50 [11]: 30.6 µM
- IC (TGI) [11]: 9.31 µM
- Percent Growth ([11]; Log10 Concentration −4.0): −100%
- Percent Growth ([11]; Log10 Concentration −5.0): −3%
- Percent Growth ([11]; Log10 Concentration −6.0): 88%
- Percent Growth ([11]; Log10 Concentration −7.0): 100%
- Percent Growth ([11]; Log10 Concentration −8.0): 99%
- GI50 [12]: 5.31 µM
- CC50 [12]: 47 µM
- IC (TGI) [12]: 19.5 µM
- GI50 [13]: 8.95 µM
- CC50 [13]: 65.6 µM
- IC (TGI) [13]: 24.7 µM
- GI50 [14]: 22.7 µM
- CC50 [14]: > 100 µM
- IC (TGI) [14]: 59.7 µM
- GI50 [15]: 3.35 µM
- CC50 [15]: 37.7 µM
- IC (TGI) [15]: 14 µM
- GI50 [16]: 13.3 µM
- CC50 [16]: 61.3 µM
- IC (TGI) [16]: 28.6 µM
- GI50 [17]: 14.9 µM
- CC50 [17]: 62.2 µM
- IC (TGI) [17]: 30.4 µM
- GI50 [18]: 20.9 µM
- CC50 [18]: > 100 µM
- IC (TGI) [18]: 81.5 µM
